According to patent publication US9370189B2, “Controlling Pseudomonas aeruginosa persister cells with GM-CSF” (priority 2012, dated 2016):

What was measured:
whole cells of E. coli = assay: GM-CSF binding assay to bacterial whole cells (slot blot immunoblotting); parameters: species or system Escherichia coli; conditions: PBS, room temperature, 2 h, anti-rhGM-CSF immunoblot (FIG. 21)
Experimental: This Example describes experiments conducted to determine the capability of GM-CSF to bind to whole cells of P. aeruginosa and E. coli. In brief, bacteria harvested at stationary phases of growth were washed with PBS and adjusted to OD600 of 0.4 with PBS to ensure that an equal amount of cells was used for all GF-CSF binding tests. Suspensions of bacteria (10^6 CFU) were then incubated with and without different amount of recombinant human GM-CSF (rhGM-CSF, R&D systems) in a 40 μL volume at room temperature for 2 hours. After incubation, the cell suspension was centrifuged to separate supernatant (comprising buffer and unbound GM-CSF) and pellet (comprising cell and bound GM-CSF, if any), followed by the addition of 10 mM EDTA and boiling for 30 minutes to inactivate bacterial alkaline phosphatase activity. As control, PBS buffer with GM-CSF were processed in the similar manner. All the samples were then applied to Slot Blot (BioRad) for immunoblotting experiments. Anti-rhGMCSF developed in mice (Human GM-CSF MAb, Mouse IgG1, R&D system) was used as first antibody; Alkaline Phosphatase conjugated with Anti-mouse IgG was used to detect the binding of GM-CSF with BCIP/NBT (Promega) as substrates.

E. coli K12 = assay: Effect of GM-CSF on planktonic E. coli K12 cells (total viable cells and persisters) at exponential phase, alone and with antibiotic; assay type: cell-based, Escherichia coli; conditions: for % change in avg. CFU/mL by GM-CSF (compared to GM-CSF free control) 20 μg/mL Tet / % change in avg. CFU/mL by GM-CSF (compared to GM-CSF free control) With 2 μg/mL Cip / % change in avg. CFU/mL by GM-CSF (compared to GM-CSF free control) With 70 μg/mL Tob / % change in avg. CFU/mL by GM-CSF (compared to GM-CSF free control) With 200 μg/mL Gen: E. coli K12 exponential phase, 0.17 pM GM-CSF; for % change in avg. CFU/ml after adding factor + CIP / % change in avg. CFU/ml after adding factor + TET / % change in avg. CFU/ml after adding factor + TOB / % change in avg. CFU/ml after adding factor + GEN: planktonic E. coli K12; for % change in avg. CFU/ml after adding factor + CIP: 2.43 pg/mL GM-CSF with 2 μg/mL ciprofloxacin; for % change in avg. CFU/ml after adding factor + TET: 2.43 pg/mL GM-CSF with 20 μg/mL tetracycline; for % change in avg. CFU/ml after adding factor + TOB: 2.43 pg/mL GM-CSF with 70 μg/mL tobramycin; for % change in avg. CFU/ml after adding factor + GEN: 2.43 pg/mL GM-CSF with 200 μg/mL gentamicin
Experimental: This Example describes the treatment of planktonic P. aeruginosa PAO1, PDO300 and Escherichia coli K12, with GM-CSF introduced directly or together with an antibiotic to test the synergy. All experiments were conducted with cells harvested from exponential phase subcultures with an optical density at 600 nm (OD600) of 0.3 to 0.4.
In brief, after preparing an overnight culture of the tested strain in 25 ml LB medium, a subculture was prepared with an OD600 of 0.01 in 50 mL LB medium. The subculture was incubated at 37° C. with shaking at 200 rpm for 3-4 h, till an OD600 of 0.3 to 0.4 was reached. The exponential phase subculture was then divided equally into two centrifuge tubes, each containing 25 mL of the subculture. The subcultures were washed twice with 0.85% NaCl buffer by vortexing and then centrifuging at 4° C., 8000 rpm for 10 min each time. The washed subcultures/cells were resuspended in 25 mL 0.85% NaCl buffer and vortexed gently for 1 min. One of the tubes of subculture was selected for isolation of persisters by adding 200 μg/mL ciprofloxacin (for PAO1 and PDO300 strains) or 100 μg/mL ampicillin (for E. coli K12 strain). After adding the antibiotic for persister isolation, the subculture was incubated at 37° C., shaking at 200 rpm for 3.5 h.
To test the effects of GM-CSF on viability of persisters, the second tube was used to quantify the total number of viable cells and 1 mL of the washed persister cells was divided into 6 microcentrifuge tubes; 3 were control and the other 3 were GM-CSF treatment samples. In the treatment samples, GM-CSF was added to a concentration of 2.43 pg/mL (or 0.17 pM), the same as found in healthy human bodies. The control samples were supplemented with the same concentration of PBS and BSA as present in 2.43 pg/mL (or 0.17 pM) GM-CSF samples.
After incubating at 37° C. for 1 h with shaking at 200 rpm, the samples were plated on LB agar plates (15 g/L bacto agar) using drop plate method. The agar plates were then incubated for 24 h at 37° C. to count the total number of persister cells and understand the effect of 0.17 pM GM-CSF on the viability of persister cells.
To test the synergy with antibiotics, the above samples were then incubated at 37° C. for 3.5 h with shaking at 200 rpm after adding the selected antibiotic. After 3.5 h, the CFU of samples was quantified in the same way to understand if there is any synergy between GM-CSF and antibiotic. Similar treatments were performed on the total population in exponential phase as well. Apart from exponential phase, the synergistic effects of GM-CSF with antibiotics on total viable cells and persisters were also evaluated at stationary phase but PBS buffer (pH=7.4) was used in the experiments instead of 0.85% NaCl solution. Moreover, the 1 h and 3.5 h treatments were performed as co-treatments.

[1] = total viable cells, listed as factor

GM-CSF: granulocyte macrophage-colony stimulating factor, a cytokine secreted by macrophages; recombinant human GM-CSF (R&D systems) in binding tests
binding to whole cells (whole cells of E. coli): not
effect on E. coli persister cells (E. coli K12; compared to the pathogenic strain P. aeruginosa): ineffective
% change in avg. CFU/mL by GM-CSF (compared to GM-CSF free control) 20 μg/mL Tet (E. coli K12; persisters): −6.7%
% change in avg. CFU/mL by GM-CSF (compared to GM-CSF free control) With 2 μg/mL Cip (E. coli K12; persisters): −4.8%
% change in avg. CFU/mL by GM-CSF (compared to GM-CSF free control) With 70 μg/mL Tob (E. coli K12; persisters): +1.5%
% change in avg. CFU/mL by GM-CSF (compared to GM-CSF free control) With 200 μg/mL Gen (E. coli K12; persisters): +11.1%
% change in avg. CFU/ml after adding factor + CIP (E. coli K12; persisters): −6.18%
% change in avg. CFU/ml after adding factor + CIP (E. coli K12; persisters, listed as factor): −6.18%
% change in avg. CFU/ml after adding factor + TET (E. coli K12; persisters): +12.00%
% change in avg. CFU/ml after adding factor + TET (E. coli K12; persisters, listed as factor): +12.00%
% change in avg. CFU/ml after adding factor + TOB (E. coli K12; persisters): +11.16%
% change in avg. CFU/ml after adding factor + TOB (E. coli K12; persisters, listed as factor): +11.16%
% change in avg. CFU/ml after adding factor + GEN (E. coli K12; persisters): +18.52%
% change in avg. CFU/ml after adding factor + GEN (E. coli K12; persisters, listed as factor): +18.52%
% change in avg. CFU/mL by GM-CSF (compared to GM-CSF free control) 20 μg/mL Tet (E. coli K12; total viable cells): −19.0%
% change in avg. CFU/mL by GM-CSF (compared to GM-CSF free control) With 2 μg/mL Cip (E. coli K12; total viable cells): +5.9%
% change in avg. CFU/mL by GM-CSF (compared to GM-CSF free control) With 70 μg/mL Tob (E. coli K12; total viable cells): −32.0%
% change in avg. CFU/mL by GM-CSF (compared to GM-CSF free control) With 200 μg/mL Gen (E. coli K12; total viable cells): −31.3%
% change in avg. CFU/ml after adding factor + CIP (E. coli K12; total viable cells): +5.88%
% change in avg. CFU/ml after adding factor + CIP (E. coli K12; [1]): +5.88%
% change in avg. CFU/ml after adding factor + TET (E. coli K12; total viable cells): −19.05%
% change in avg. CFU/ml after adding factor + TET (E. coli K12; [1]): −19.05%
% change in avg. CFU/ml after adding factor + TOB (E. coli K12; total viable cells): −32.00%
% change in avg. CFU/ml after adding factor + TOB (E. coli K12; [1]): −32.00%
% change in avg. CFU/ml after adding factor + GEN (E. coli K12; total viable cells): −31.34%
% change in avg. CFU/ml after adding factor + GEN (E. coli K12; [1]): −31.34%
